Results as given in patent publication US11149023B2, “Substituted triazole derivatives and uses thereof” (Bayer Pharma Aktiengesellschaft, priority 2017, dated 2021).
pIC50: −log10 of the molar value.

Columns and labels:
[1] = target: human V2 receptor (Homo sapiens (Human), UniProt P30518); experiment: Cellular in vitro assay for determining vasopressin receptor activity (V2, CRE-luciferase); type: cell-based; settings: CHO cell line transfected with human V2 receptor; [Arg8]-vasopressin at EC50 concentration; read-out: IC50 hV2
Method: (§1) B-1. Cellular In Vitro Assay for Determining Vasopressin Receptor Activity
(§2) The identification of agonists and antagonists of the V1a and V2 vasopressin receptors from humans, rats and dogs as well as the quantification of the activity of the compounds of the invention is carried out using recombinant cell lines. These cell lines originally derive from a hamster's ovary epithelial cell (Chinese Hamster Ovary, CHO K1, ATCC: American Type Culture Collection, Manassas, Va. 20108, USA). The test cell lines constitutively express the human, rat or dog V1a or V2 receptors. In case of the Gαq-coupled V1a receptors, cells are also stably transfected with a modified form of the calcium-sensitive photoproteins aequorin (human and rat V1a) or obe-lin (dog V1a), which, after reconstitution with the cofactor coelenterazine, emit light when there are increases in free calcium concentrations [Rizzuto R, Simpson A W, Brini M, Pozzan T, Nature 358, 325-327 (1992); Illarionov B A, Bondar V S, Illarionova V A, Vysotski E S, Gene 153 (2), 273-274 (1995)]. The resulting vasopressin receptor cells react to stimulation of the recombinantly expressed Via receptors by intracellular release of calcium ions, which can be quantified by the resulting photoprotein luminescence. The Gs-coupled V2 receptors are stably transfected into cell lines expressing the gene for firefly luciferase under control of a CRE-responsible promoter. Activation of V2 receptors induces the activation of the CRE-responsive promoter via cAMP increase, thereby inducing the expression of firefly luciferase. The light emitted by photoproteins of V1a cell lines as well as the light emitted by firefly luciferase of V2 cell lines corresponds to the activation or inhibition of the respective vasopressin receptor. The bioluminescence of the cell lines is detected using a suitable luminometer [Milligan G, Marshall F, Rees S, Trends in Pharmacological Sciences 17, 235-237 (1996)].
Vasopressin V2 Receptor Cell Lines:
On the day before the assay, the cells are plated out in culture medium (DMEM/F12, 2% FCS, 2 mM glutamine, 10 mM HEPES) in 384-well microtiter plates and kept in a cell incubator (96% humidity, 5% v/v CO2, 37° C.). On the day of the assay, test compounds in various concentrations and the agonist [Arg^8]-vasopressin at EC50 concentration are added together to the wells, and plates are incubated for 3 hours in a cell incubator. Upon addition of the cell lysis reagent Triton™ and the substrate luciferin, luminescence of firefly luciferase is measured in a luminometer.
(§3) Table 1A below lists individual IC50 values for the compounds of the invention (including racemic mixtures as well as separated enantiomers) that were obtained from cell lines transfected with the human Via or V2 receptor: […]

[2] = target: human V1a receptor (Homo sapiens (Human), UniProt P37288); experiment: Cellular in vitro assay for determining vasopressin receptor activity (V1a, aequorin luminescence); type: cell-based; settings: for pIC50: CHO cell line transfected with human V1a receptor, [Arg8]-vasopressin at EC50 concentration, read-out: IC50 hV1a; for ratio IC50 hV2/hV1a: selectivity, IC50 hV2 divided by IC50 hV1a
Method: as §1, §2
Vasopressin V1a Receptor Cell Lines:
On the day before the assay, the cells are plated out in culture medium (DMEM/F12, 2% FCS, 2 mM glutamine, 10 mM HEPES, 5 μg/ml coelenterazine) in 384-well microtiter plates and kept in a cell incubator (96% humidity, 5% v/v CO2, 37° C.). On the day of the assay, test compounds in various concentrations are placed for 10 minutes in the wells of the microtiter plate before the agonist [Arg^8]-vasopressin at EC50 concentration is added. The resulting light signal is measured immediately in a luminometer.
as §3

Sequence of human V2 receptor (P30518 whole entry): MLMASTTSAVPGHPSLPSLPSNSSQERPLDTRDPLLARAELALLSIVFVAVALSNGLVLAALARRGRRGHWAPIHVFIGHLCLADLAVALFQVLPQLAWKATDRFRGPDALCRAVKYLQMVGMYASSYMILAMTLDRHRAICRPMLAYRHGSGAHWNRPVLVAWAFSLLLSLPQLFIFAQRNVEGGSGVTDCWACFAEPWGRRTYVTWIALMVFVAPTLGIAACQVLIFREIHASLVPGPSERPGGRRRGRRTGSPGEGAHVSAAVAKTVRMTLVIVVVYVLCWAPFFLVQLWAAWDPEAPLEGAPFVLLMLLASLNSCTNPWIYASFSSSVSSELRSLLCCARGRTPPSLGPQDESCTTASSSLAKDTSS
Sequence of human V1a receptor (P37288 whole entry): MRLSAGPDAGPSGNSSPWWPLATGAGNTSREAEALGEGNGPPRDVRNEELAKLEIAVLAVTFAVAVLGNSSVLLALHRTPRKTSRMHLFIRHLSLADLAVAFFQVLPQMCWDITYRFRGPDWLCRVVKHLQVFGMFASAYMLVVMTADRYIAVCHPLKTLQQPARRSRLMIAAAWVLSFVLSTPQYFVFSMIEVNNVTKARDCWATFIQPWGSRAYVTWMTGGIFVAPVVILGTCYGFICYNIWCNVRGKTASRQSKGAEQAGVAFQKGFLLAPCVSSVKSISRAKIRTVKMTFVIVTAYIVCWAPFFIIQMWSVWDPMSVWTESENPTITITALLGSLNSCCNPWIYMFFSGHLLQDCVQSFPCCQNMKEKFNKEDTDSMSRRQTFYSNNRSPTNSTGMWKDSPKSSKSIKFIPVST

Row | SMILES | pIC50 [1] | pIC50 [2] | ratio IC50 hV2/hV1a [2]
1 | O=C(NC(Cn1c(-c2ccc(Cl)cc2)nn(Cc2ncn(-c3ncccc3Cl)n2)c1=O)C(F)(F)F)C1CC1C(F)(F)F (stereo not shown) [Example 18, N-{3-[3-(4-Chlorophenyl)-1-{[1-(3-chloropyridin-2-yl)-1H-1,2,4-triazol-3-yl]methyl}-5-oxo-1,5-dihydro-4H-1,2,4-triazol-4-yl]-1,1,1-trifluoropropan-2-yl}-2-(trifluoromethyl)cyclopropanecarboxamide] | 7.47 | 8.60 | 13.4
2 | O=C(NC(Cn1c(-c2ccc(Cl)cc2)nn(Cc2ncn(-c3ncccc3Cl)n2)c1=O)C(F)(F)F)C1CC1F (stereo not shown) [Example 12, N-{3-[3-(4-Chlorophenyl)-1-{[1-(3-chloropyridin-2-yl)-1H-1,2,4-triazol-3-yl]methyl}-5-oxo-1,5-dihydro-4H-1,2,4-triazol-4-yl]-1,1,1-trifluoropropan-2-yl}-2-fluorocyclopropanecarboxamide] | 6.25 | 7.65 | 24.9
3 | CC(C)(O)C(=O)NC(Cn1c(-c2ccc(Cl)cc2)nn(Cc2ncn(-c3ncccc3Cl)n2)c1=O)C(F)(F)F (racemic) [Example 17, N-{3-[3-(4-Chlorophenyl)-1-{[1-(3-chloropyridin-2-yl)-1H-1,2,4-triazol-3-yl]methyl}-5-oxo-1,5-dihydro-4H-1,2,4-triazol-4-yl]-1,1,1-trifluoropropan-2-yl}-2-hydroxy-2-methylpropanamide] | 6.55 | 8.02 | 29.3
4 | O=C(NC(Cn1c(-c2ccc(Cl)cc2)nn(Cc2ncn(-c3ncccc3Cl)n2)c1=O)C(F)(F)F)C1CCO1 (stereo not shown) [Example 3, N-{3-[3-(4-Chlorophenyl)-1-{[1-(3-chloropyridin-2-yl)-1H-1,2,4-triazol-3-yl]methyl}-5-oxo-1,5-dihydro-4H-1,2,4-triazol-4-yl]-1,1,1-trifluoropropan-2-yl}oxetane-2-carboxamide] | 6.35 | 8.39 | 108.5
5 | CC(C)(C)OC(=O)N1CCC(C(=O)NC(Cn2c(-c3ccc(Cl)cc3)nn(Cc3ncn(-c4ncccc4Cl)n3)c2=O)C(F)(F)F)C1 (stereo not shown) [Example 23, tert-Butyl 3-({3-[3-(4-chlorophenyl)-1-{[1-(3-chloropyridin-2-yl)-1H-1,2,4-triazol-3-yl]methyl}-5-oxo-1,5-dihydro-4H-1,2,4-triazol-4-yl]-1,1,1-trifluoropropan-2-yl}carbamoyl)pyrrolidine-1-carboxylate] | 7.14 | 9.00 | –
6 | CC(=O)NC(Cn1c(-c2ccc(Cl)cc2)nn(Cc2ncn(-c3ncccc3Cl)n2)c1=O)C(F)(F)F (racemic) [Example 4, N-{3-[3-(4-Chlorophenyl)-1-{[1-(3-chloropyridin-2-yl)-1H-1,2,4-triazol-3-yl]methyl}-5-oxo-1,5-dihydro-4H-1,2,4-triazol-4-yl]-1,1,1-trifluoropropan-2-yl}acetamide] | 5.73 | 7.26 | 33.3
7 | O=C(/C=C/C(F)(F)F)NC(Cn1c(-c2ccc(Cl)cc2)nn(Cc2ncn(-c3ncccc3Cl)n2)c1=O)C(F)(F)F (racemic) [Example 25, (2E)-N-{3-[3-(4-Chlorophenyl)-1-{[1-(3-chloropyridin-2-yl)-1H-1,2,4-triazol-3-yl]methyl}-5-oxo-1,5-dihydro-4H-1,2,4-triazol-4-yl]-1,1,1-trifluoropropan-2-yl}-4,4,4-trifluorobut-2-enamide] | 6.76 | 8.76 | 98.6

Second part, the molecule after the results:

Row | pIC50 [1] | pIC50 [2] | ratio IC50 hV2/hV1a [2] | SMILES
8 | 7.32 | 8.77 | 28.2 | O=C(NC(Cn1c(-c2ccc(Cl)cc2)nn(Cc2ncn(-c3ncccc3Cl)n2)c1=O)C(F)(F)F)C1CS(=O)(=O)C1 (racemic) [Example 38, N-{3-[3-(4-Chlorophenyl)-1-{[1-(3-chloropyridin-2-yl)-1H-1,2,4-triazol-3-yl]methyl}-5-oxo-1,5-dihydro-4H-1,2,4-triazol-4-yl]-1,1,1-trifluoropropan-2-yl}thietane-3-carboxamide 1,1-dioxide]
9 | 7.24 | 8.85 | 40.9 | O=C(N[C@@H](Cn1c(-c2ccc(Cl)cc2)nn(Cc2ncn(-c3ncccc3Cl)n2)c1=O)C(F)(F)F)C1(C(F)(F)F)CC1 [Example 43]
10 | 4.92 | 5.87 | – | O=C(NC(Cn1c(-c2ccc(Cl)cc2)nn(Cc2ncn(-c3ncccc3Cl)n2)c1=O)C(F)(F)F)C1(C(F)(F)F)CC1 (single isomer, unassigned) [Example 42, N-{3-[3-(4-Chlorophenyl)-1-{[1-(3-chloropyridin-2-yl)-1H-1,2,4-triazol-3-yl]methyl}-5-oxo-1,5-dihydro-4H-1,2,4-triazol-4-yl]-1,1,1-trifluoropropan-2-yl}-1-(trifluoromethyl)cyclopropane-carboxamide]
11 | 7.11 | 8.92 | 65.2 | CS(=O)(=O)CC(=O)NC(Cn1c(-c2ccc(Cl)cc2)nn(Cc2ncn(-c3ncccc3C(F)(F)F)n2)c1=O)C(F)(F)F (racemic) [Example 64, N-{3-[3-(4-Chlorophenyl)-5-oxo-1-({1-[3-(trifluoromethyl)pyridin-2-yl]-1H-1,2,4-triazol-3-yl}methyl)-1,5-dihydro-4H-1,2,4-triazol-4-yl]-1,1,1-trifluoropropan-2-yl}-2-(methanesulfonyl)acetamide]
12 | 6.82 | 8.49 | 46.9 | O=C(NC(Cn1c(-c2ccc(Cl)cc2)nn(Cc2ncn(-c3ncccc3Cl)n2)c1=O)C(F)(F)F)[C@@H]1CC(C(F)(F)F)CN1 (stereo partly shown) [Example 50]
13 | 6.92 | 8.52 | 40.2 | O=C(NC(Cn1c(-c2ccc(Cl)cc2)nn(Cc2ncn(-c3ncccc3C(F)(F)F)n2)c1=O)C(F)(F)F)C1(C(F)(F)F)CC1 (racemic) [Example 58, N-{3-[3-(4-Chlorophenyl)-5-oxo-1-({1-[3-(trifluoromethyl)pyridin-2-yl]-1H-1,2,4-triazol-3-yl}methyl)-1,5-dihydro-4H-1,2,4-triazol-4-yl]-1,1,1-trifluoropropan-2-yl}-1-(trifluoromethyl)cyclopropane-1-carboxamide]
14 | 7.30 | 8.73 | 27.0 | O=C(NC(Cn1c(-c2ccc(Cl)cc2)nn(Cc2ncn(-c3ncccc3Cl)n2)c1=O)C(F)(F)F)C1CCCN1 (stereo not shown) [Example 47, N-{3-[3-(4-Chlorophenyl)-1-{[1-(3-chloropyridin-2-yl)-1H-1,2,4-triazol-3-yl]methyl}-5-oxo-1,5-dihydro-4H-1,2,4-triazol-4-yl]-1,1,1-trifluoropropan-2-yl}-prolinamide]
15 | 5.72 | 6.67 | 8.8 | NC1(C(=O)NC(Cn2c(-c3ccc(Cl)cc3)nn(Cc3ncn(-c4ncccc4Cl)n3)c2=O)C(F)(F)F)CC1 (racemic) [Example 27, 1-Amino-N-{3-[3-(4-chlorophenyl)-1-{[1-(3-chloropyridin-2-yl)-1H-1,2,4-triazol-3-yl]methyl}-5-oxo-1,5-dihydro-4H-1,2,4-triazol-4-yl]-1,1,1-trifluoropropan-2-yl}cyclopropanecarboxamide]
16 | 7.12 | 8.72 | 39.5 | O=C(CCC(F)(F)F)NC(Cn1c(-c2ccc(Cl)cc2)nn(Cc2ncn(-c3ncccc3C(F)(F)F)n2)c1=O)C(F)(F)F (racemic) [Example 59, N-{3-[3-(4-Chlorophenyl)-5-oxo-1-({1-[3-(trifluoromethyl)pyridin-2-yl]-1H-1,2,4-triazol-3-yl}methyl)-1,5-dihydro-4H-1,2,4-triazol-4-yl]-1,1,1-trifluoropropan-2-yl}-4,4,4-trifluorobutanamide]
